Measurements reported in patent US12440466B2, “Fatty acid derivatives for treating non-alcoholic steatohepatitis” (BASF AS, priority 2017, dated 2025).
Marks after values point to notes of the source that are not given here.

Key:
[1] = Body weight, liver weight and food intake in ob/ob AMLN mice; assay type: in vivo, mouse
Protocol: (§1) Obese diet-induced B6.V-Lepob/Jrj mice (ob/ob) are consistently fibrosis (liver) prone when cholesterol (2%), 40% fat (containing 18% trans-fatty acids) and 20% fructose are added to a high-caloric diet (i.e., AMLN high-fat diet). ob/ob mice on AMLN diet (termed ‘ob/ob AMLN mice’) develop steatohepatitis and fibrosis within a shorter timeframe ([…]) compared with wild-type C57BL/6 mice (AMLN mice) fed the same diet. ob/ob AMLN mice provide an obese diet-induced model of NASH that also allows the study of effects on glycemic control. Development of NASH in the ob/ob AMLN model is confirmed by biopsy.
In Biological Examples 10-12, 15, and 19, studies were performed in male ob/ob mice (5 weeks old) fed an AMLN high-fat diet for 15 weeks, then randomized into 3 groups (n=10 per group) to receive either 112 mg/kg bw per day of Compound A via diet, 30 mg/kg bw per day pioglitazone via diet or no treatment (vehicle) for a further 4 weeks. An oral glucose tolerance test (OGTT) was performed at week 3. Hepatic fibrosis was assessed via measurements of hepatic fibrogenic/fibrolytic gene expression by RNA sequencing at 4 weeks.
(§2) In Biological Examples 10, 13-14, and 16-18, studies were performed in male ob/ob mice (5 weeks old) fed an AMLN high-fat diet for 18 weeks, then randomized into 6 groups (n=10 per group) to receive either Compound A (at 3 different daily doses, 45 mg/kg, 90 mg/kg or 135 mg/kg) via diet, 30 mg/kg bw per day obeticholic acid (OCA) via diet, or no treatment (vehicle) for a further 8 weeks. Assessment of NASH related parameters and fibrosis was made at study end by quantitative immune histochemistry (IHC) measurements.

[2] = system: α-smooth muscle actin (SMA); experiment: Hepatic α-SMA content by quantitative IHC in ob/ob AMLN mice; assay type: in vivo, mouse; details: 8 weeks, OCA 30 mg/kg
Protocol: as §1, §2

col1A1 = experiment: Hepatic col1A1 content by quantitative IHC in ob/ob AMLN mice; assay type: in vivo, mouse; details: 8 weeks, OCA 30 mg/kg
Protocol: as §1, §2

ob/ob AMLN mice = experiment: Plasma ALT and AST (hepatocellular damage) in ob/ob AMLN mice; assay type: in vivo, mouse; details: 8 weeks, OCA 30 mg/kg
Protocol: as §1, §2
To assess the effects of Compound A and pioglitazone on hepatocellular injury or damage in ob/ob AMLN mice, plasma alanine aminotransferase (ALT) and aspartate transaminase (AST) were measured after 8 weeks of administration.

CDAA/high-fat fed mice [3] = experiment: Hepatic lipidomic analysis, CDAA/high-fat diet mouse model; assay type: in vivo; details: Compound A 112 mg/kg bw per day or equimolar EPA, orally
Protocol: (§3) In Biological Examples 1-7, studies were performed in male C56BL/6J mice (9 weeks old). Mice were fed either choline-sufficient (CS) or choline deficient high-fat diets (31% total calories; “CDAA/high-fat”). The NASH inducing diet was instigated 6 weeks prior to the commencement of treatment in order to design the study as a treatment/reversal set-up rather than prophylaxis.
In Biological Example 7, after 6 weeks of either the CS or CDAA/high-fat diet, mice were administered 112 mg/kg bw per day of Compound A, or an equimolar dose of eicosapentaenoic acid (EPA), delivered orally. Hepatic lipidomic analysis was performed in isolated liver samples from CS (n=9), Compound A (n=9) and EPA (n=8) groups.
To further understand the effects of Compound A on hepatic lipid metabolism, lipidomic analysis of CS- and CDAA/high-fat fed mice (“CD”) was performed in isolated liver tissue.

STAM (model) mice [4] = experiment: NAFLD activity score (NAS) in streptozotocin/high-fat diet NASH model (STAM model); assay type: in vivo, mouse; details: 6 weeks treatment, Compound A 37 mg/kg/day oral gavage, telmisartan positive control
Description: (§4) In Biological Example 8, pathogen-free 15-day-pregnant C57BL/6 mice were obtained from Charles River Laboratories in Japan Inc. (Kanagawa, Japan). NASH was established in male mice by a single subcutaneous injection of streptozotocin (STZ) (Sigma, USA) after birth and feeding with a high fat diet (HFD; CLEA) Japan, Japan) ad libitum after 4 weeks of age (day 28±2). Mice were randomised into 3 groups of 8 mice at 6 weeks of age the day before the start of treatment: vehicle (saline), Compound A and telmisartan (positive control). Treatment with Compound A at a dose of 37 mg/kg bw per day via oral gavage in conjunction with a high-fat diet was given for 6 weeks before sacrifice. NAFLD activity score (NAS) was calculated according to standardised criteria and fibrosis area was assessed via Sirius Red staining.

STAM (model) mice [5] = experiment: Fibrosis area by Sirius Red staining, STAM model; assay type: in vivo, mouse; details: Sirius Red positive area, 6 weeks treatment, Compound A 37 mg/kg/day oral gavage
Description: as §4

[6] = system: LX-2 human hepatic stellate cells; experiment: LX-2 stellate cell proliferation by BrdU incorporation; assay type: cell-based; details: LX-2 cells; 24 hours; OA 75 μM
Protocol: (§5) Stellate cells are resident liver cells and the major cell type involved in the initiation and progression of liver fibrosis. In Biological Example 20, in vitro studies were performed on cultured human stellate cells (LX-2 cells) to assess direct effects of Compound A on these cells. Cells were treated for 24 hours with Compound A (10 μM, 25 μM, 50 μM, or 75 μM) or oleic acid (OA; 75 μM) and bromodeoxyuridine (BrdU) incorporation was assessed to determine effects on proliferation. A MTS (3-(4,5-dimethylthiazol-2-yl)-5-(3-carboxymethoxyphenyl)-2-(4-sulfophenyl)-2H-tetrazolium) assay was used to determine cell viability.
(§6) Cell proliferation of LX-2 human hepatic stellate cells treated for 24 hours with 10-75 μM of Compound A or oleic acid (OA) (75 μM) was assessed by BrdU incorporation. The results are normalised mean values ±S.E.M. of 5 independent experiments for icosabutate and 2 independent experiments for OA. […] The reduction in proliferation by Compound A was 25-34% at 24 hours whereas OA had no effect. The comparisons were made by one-way ANOVA with Dunnett's correction for multiple comparisons.

[7] = system: LX-2 human hepatic stellate cells; experiment: LX-2 cell viability by MTS assay; assay type: cell-based; details: LX-2 cells; 24 hours; Compound A 10-75 μM, OA 75 μM
Protocol: as §5, §6

CDAA/high-fat fed mice [8] = experiment: Hepatic hydroxyproline (HYP) content, CDAA/high-fat diet induced NASH mouse model; assay type: in vivo
Description: Mouse models that are deficient in methionine and/choline (MCD and CDAA respectively) are well established for studying the development and treatment of NASH in pre-clinical drug development. As precursors for the synthesis of phosphatidylcholine, a dietary deficiency of methionine/choline leads to an inability to synthesize hepatic lipoproteins for the export of triglyceride that results in severe hepatic steatosis, inflammation and fibrosis.
Although the widely used methionine-choline deficient (MCD) diet consistently reproduces severe NASH-like hepatic inflammation and fibrosis in mice, it is also associated with severe weight-loss (loss of both skeletal muscle and fat mass). This is associated with an increased risk of death which presents major problems for long-term fibrogenesis experiments.
as §3
(§7) In Biological Examples 1-5, mice were divided into 6 experimental groups (n=9 per group) and fed either CS or CDAA/high-fat diets. After 6 weeks of either the CS- or CDAA diet, mice were orally administered Compound A or comparison Compound N, both at 2 doses, 0.15 mmol/kg bw/day (low-dose, LD) and 0.3 mmol/kg bw per day (high-dose, HD). The test substances were administered orally as admix to the high-fat diet. Hepatic fibrosis was assessed by both measurement of hydroxyproline (HYP) content and Sirius Red (SR) morphometry. Fibrosis, inflammation and metabolism related transcripts levels were measured by quantitative real-time polymerase chain reaction (qPCR).

TNF-α mRNA = experiment: Hepatic TNF-α mRNA expression by qPCR, CDAA/high-fat diet mouse model; assay type: in vivo; details: CDAA/high-fat fed mice
Description: (§8) Mice were fed either choline-sufficient (CS) or choline deficient high-fat diets (31% total calories; “CDAA/high-fat”). The NASH inducing diet was instigated 6 weeks prior to the commencement of treatment in order to design the study as a treatment/reversal set-up rather than prophylaxis.
as §7, with “After” for “In Biological Examples 1-5, mice were divided into 6 experimental groups (n=9 per group) and fed either CS or CDAA/high-fat diets. After”
(§9) Studies were performed in male C56BL/6J mice (9 weeks old). Mice were divided into 6 experimental groups (n=9 per group) containing either CS or CDAA/high-fat diets, as described above. The NASH inducing CDAA/high fat diet was instigated 6 weeks prior to the commencement of treatment in order to assess treatment/reversal rather than prophylaxis. […] Compound A was administered orally as admix to the high-fat diet whilst GLP-1 agonist was delivered via intraperitoneal injection (i.p.). Fibrosis, inflammation and metabolism related transcripts levels were measured by quantitative real-time polymerase chain reaction (qPCR) in isolated liver tissue.

Col1a1 mRNA = experiment: Hepatic Col1a1 mRNA expression by qPCR, CDAA/high-fat diet mouse model; assay type: in vivo; details: CDAA/high-fat fed mice
Description: as §8
as §7, with “After” for “In Biological Examples 1-5, mice were divided into 6 experimental groups (n=9 per group) and fed either CS or CDAA/high-fat diets. After”
as §9

APOE*3Leiden.CETP mice [9] = experiment: Hepatocellular hypertrophy grading in APOE*3Leiden.CETP double transgenic mice; assay type: in vivo, mouse; details: APOE*3Leiden.CETP mice on high fat/cholesterol diet; 0.3 mmol/kg bw per day by gavage; 20 weeks
Description: The APOE*3Leiden.CETP double transgenic mouse expresses a variant of the human apolipoprotein E3 (APOE3), the APOE*3Leiden, in addition to the human apolipoprotein C1 (APOC1) and CETP. […] By increasing the cholesterol content of the diet in this model, all the characteristics of human NASH develop.
In one study (using 1% cholesterol w/w), after a 3 weeks run-in period low-responder mice (20% of total) were removed from the study and the remaining mice were sub-divided into 4 groups of 12 mice each (+5 in the control group), matched for plasma cholesterol, triglycerides, blood glucose, body weight and age (t=0) and treatment was started. The mice received a daily gavage between 07hr00 and 10hr00 with either Compound A at 0.3 mmol/kg bw per day, the comparison compound Compound N (0.3 mmol/kg bw per day), rosiglitazone (13 mg/kg bw per day) or control (corn oil). After 20 weeks of treatment mice were sacrificed by CO2 asphyxiation, the liver was collected and the level of hepatocellular hypertrophy was graded.

APOE*3Leiden.CETP mice [10] = details: WO2016173923A1, cited from earlier work
[11] = 8 weeks, Compound A 45, 90 and 135 mg/kg, OCA 30 mg/kg bw per day

For `CCc1ccc(CCOc2ccc(CC3SC(=O)NC3=O)cc2)nc1` (stereo not drawn) [pioglitazone, reference compound], the increase in bodyweight ([1]; 4 weeks, pioglitazone 30 mg/kg bw per day, p<0.01) was 15%.
With `CC[C@H]1[C@@H](O)[C@@H]2[C@H](CC[C@]3(C)[C@@H]([C@H](C)CCC(=O)O)CC[C@@H]23)[C@@]2(C)CC[C@@H](O)C[C@@H]12` [OCA, reference compound] the body weight [1, 11] was “neither Compound A (45 mg/kg, 90 mg/kg, and 135 mg/kg) nor OCA significantly affected body weight”, the food intake [1, 11] was “not affected” and the “area percentage of α-SMA content compared to pre-treatment biopsy” value [2] was “no significant effect”. The “total col1A1 content” value (col1A1) was “no significant effect”, the “plasma ALT” value (ob/ob AMLN mice) was “no effect” and the “plasma AST” value (ob/ob AMLN mice) was “no effect”.
In the case of `CC/C=C\C/C=C\C/C=C\C/C=C\C/C=C\CCCC(=O)O` [EPA, (5Z,8Z,11Z,14Z,17Z)-icosa-5,8,11,14,17-pentaenoic acid, reference compound], the hepatic cholesteryl ester (CDAA/high-fat fed mice [3]) is reported as “did not reduce”, the “hepatic diglycerides (DG)” value (CDAA/high-fat fed mice [3]) is reported as “did not reduce” and the “hepatic free fatty acids (FFA)” value (CDAA/high-fat fed mice [3]) is reported as “did not reduce”. The “hepatic triglyceride (TG)” value (CDAA/high-fat fed mice [3]) was “did not reduce”.
In the case of `CCCc1nc2c(C)cc(-c3nc4ccccc4n3C)cc2n1Cc1ccc(-c2ccccc2C(=O)O)cc1` [Telmisartan, reference compound], the Hepatocellular ballooning (STAM (model) mice [4]) is reported as 0.8, the Lobular inflammation (STAM (model) mice [4]) is reported as 0.45 and the “NAS score (mean ± SD)” value (STAM (model) mice [4]) is reported as 1.8 ± 0.8. The Steatosis (STAM (model) mice [4]) was 0.7 and the “Fibrosis area (%)” value (STAM (model) mice [5]) was 0.44%.
With `CCCCCCCC/C=C\CCCCCCCC(=O)O` [OA, oleic acid, reference compound] the “proliferation (BrdU incorporation)” value [6] was “no effect” and the “cell viability (MTS assay)” value [7] was “neither Compound A nor OA showed a significant effect”.
For `CC/C=C\C/C=C\C/C=C\C/C=C\C/C=C\CCCCSC(CC)(CC)C(=O)O` [Compound N, 2-ethyl-2-((5Z,8Z,11Z,14Z,17Z)-icosa-5,8,11,14,17-pentaenylthio)butanoic acid, reference compound], the “Hydroxyproline (μg) content per 100 mg liver” value (CDAA/high-fat fed mice [8]; HD 0.3 mmol/kg bw per day orally as admix to diet) was 54 μg HYP/per 100 mg liver, the “Hydroxyproline (μg) content per 100 mg liver” value (CDAA/high-fat fed mice [8]; LD 0.15 mmol/kg bw/day orally as admix to diet) was 48 μg HYP/per 100 mg liver and the “Hydroxyproline (μg) content per liver” value (CDAA/high-fat fed mice [8]; high dose (HD) 0.3 mmol/kg bw per day orally as admix to diet) was 950 µg. The “Hydroxyproline (μg) content per liver” value (CDAA/high-fat fed mice [8]; low dose (LD) 0.15 mmol/kg bw/day orally as admix to diet) was 1100 µg, the “TNF-a (relative mRNA expression)” value (TNF-α mRNA; HD 0.3 mmol/kg bw per day) was 1.2 and the “TNF-a (relative mRNA expression)” value (TNF-α mRNA; LD 0.15 mmol/kg bw/day) was 1***. For the same compound, the “Col1a1 (relative mRNA expression)” value (Col1a1 mRNA; HD 0.3 mmol/kg bw per day) was 16, the “Col1a1 (relative mRNA expression)” value (Col1a1 mRNA; LD 0.15 mmol/kg bw/day) was 15 and the “Decrease in hypertrophy vs. control (%)” value (APOE*3Leiden.CETP mice [9]) was 7%. For the same compound, the Hepatocellular hypertrophy (APOE*3Leiden.CETP mice [9]) was 42.9 ± 29.7, the “fibrosis (hydroxyproline/proline ratio)” value (APOE*3Leiden.CETP mice [10]; APOE*3Leiden.CETP mice) was “had efficacy in reducing fibrosis” and the “influx of inflammatory cells into the liver” value (APOE*3Leiden.CETP mice [10]) was “prevented the influx of inflammatory cells into the liver”.
